Legend:
L1210 [1] = assay: Inhibition of [3H]thymidine uptake into L1210 cells at a concentration of 1 uM; format: functional; settings: Mus musculus
L1210 [2] = assay: Reduction of [3H]thymidine uptake into L1210 cells at a concentration of 1 uM; format: functional, Mus musculus
L1210 [3] = assay: Compound was tested for inhibition of [3H]thymidine uptake into L1210 cells at a concentration of 10 uM; format: functional; settings: Mus musculus

Compound | inhibition at 1 µM (L1210 [1]) [%] | Reduction (L1210 [2]) [%] | inhibition at 10 µM (L1210 [3]) [%]
COc1ccc(CNc2nc(N(CCO)CCO)nc3c(NCc4ccc(OC)c(OC)c4)nc(N(CCO)CCO)nc23)cc1OC | 71 | 26 | 
OCC(O)COc1nc(N2CCCCC2)c2nc(OCC(O)CO)nc(N3CCCCC3)c2n1 (stereo not given) |  | 22 | 37
OCCN(CCO)c1nc(NCc2ccccc2)c2nc(N(CCO)CCO)nc(NCc3ccccc3)c2n1 | 38 | 45 | 
COc1ccc(CN(C)c2nc(OCCO)nc3c(N(C)Cc4ccc(OC)cc4)nc(OCCO)nc23)cc1 | 73 | 77 | 
COc1ccc(CNc2nc(OCCCO)nc3c(NCc4ccc(OC)cc4)nc(OCCCO)nc23)cc1 | 66 | 26 | 
COc1ccc(CN(C)c2nc(NCC(C)O)nc3c(N(C)Cc4ccc(OC)cc4)nc(NCC(C)O)nc23)cc1 (stereo not given) | 39 | 86 | 
COc1ccc(CN(C)c2nc(OCCCO)nc3c(N(C)Cc4ccc(OC)cc4)nc(OCCCO)nc23)cc1 | 69 | 53 | 
COc1ccc(CNc2nc(OCCO)nc3c(NCc4ccc(OC)cc4)nc(OCCO)nc23)cc1 | 40 | 30 | 
COc1ccc(CNc2nc(NCC(C)O)nc3c(NCc4ccc(OC)cc4)nc(NCC(C)O)nc23)cc1 (stereo not given) | 57 | 45 | 
COc1ccc(CNc2nc(NCC(C)O)nc3c(NCc4ccc(OC)c(OC)c4)nc(NCC(C)O)nc23)cc1OC (stereo not given) | 85 | 14 | 
COc1ccc(CNc2nc(N(CCO)CCO)nc3c(NCc4ccc(OC)cc4)nc(N(CCO)CCO)nc23)cc1 | 56 | 18 | 
COc1ccc(CNc2nc(OCCO)nc3c(NCc4ccc(OC)c(OC)c4)nc(OCCO)nc23)cc1OC | 57 | 23 | 
COc1ccc(CN(C)c2nc(NCC(C)O)nc3c(N(C)Cc4ccc(OC)c(OC)c4)nc(NCC(C)O)nc23)cc1OC (stereo not given) | 73 | 22 | 
COc1ccc(CN(C)c2nc(N(CCO)CCO)nc3c(N(C)Cc4ccc(OC)cc4)nc(N(CCO)CCO)nc23)cc1 | 75 | 47 | 
OCCN(CCO)c1nc(N2CCCCC2)c2nc(N(CCO)CCO)nc(N3CCCCC3)c2n1 [DIPYRIDAMOLE] | 89 | 96 | 

From ChEMBL document CHEMBL1133429, “Resistance-modifying agents. Part 7: 2,6-disubstituted-4,8-dibenzylaminopyrimido[5,4-d]pyrimidines that inhibit nucleoside transport in the presence of alpha1-acid glycoprotein (AGP)” (2000)
